Reference: patent US10131652B2, “Pyrimidinyloxy benzene derivatives as herbicides” (E. I. DU PONT DE NEMOURS AND COMPANY, priority 2014, dated 2018)
Where two headings read alike, the source gives them in different places.

Legend:
Assay type in all cases: in vivo
[1] = test system: wild buckwheat (Polygonum convolvulus); test: Test E pre-/postemergence plant response; conditions: Fallopia convolvulus, scale 0 to 100, read-out: Plant response rating, Buckwheat, Wild; for pest or weed control at 16 g/ha: 16 g ai/ha; for pest or weed control at 31 g/ha: 31 g ai/ha; for pest or weed control at 62 g/ha: 62 g ai/ha; for pest or weed control at 125 g/ha: 125 g ai/ha
Summary of the method: (§1)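 Pre-emergence: seeds sown in silt loam soil and sprayed with test chemicals in a non-phytotoxic solvent/surfactant mix. Post-emergence: plants at 2–18 cm (1- to 4-leaf stage) in peat/vermiculite medium treated with the same formulation. Visual rating versus controls after 7–21 days, 0 (no effect) to 100 (complete control).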

kochia (Kochia scoparia) = test: Test E pre-/postemergence plant response; conditions: Bassia scoparia, scale 0 to 100, read-out: Plant response rating, Kochia; for pest or weed control at 16 g/ha: 16 g ai/ha; for pest or weed control at 31 g/ha: 31 g ai/ha; for pest or weed control at 62 g/ha: 62 g ai/ha; for pest or weed control at 125 g/ha: 125 g ai/ha
Summary of the method: as §1

wild oat (Avena fatua) = test: Test E pre-/postemergence plant response; conditions: scale 0 to 100, read-out: Plant response rating, Oat, Wild; for pest or weed control at 16 g/ha: 16 g ai/ha; for pest or weed control at 31 g/ha: 31 g ai/ha; for pest or weed control at 62 g/ha: 62 g ai/ha; for pest or weed control at 125 g/ha: 125 g ai/ha
Summary of the method: as §1

[2] = test system: oilseed rape (Brassica napus); test: Test E pre-/postemergence plant response; conditions: scale 0 to 100, read-out: Plant response rating, Oilseed Rape; for plant injury at 16 g/ha: 16 g ai/ha; for plant injury at 31 g/ha: 31 g ai/ha; for plant injury at 62 g/ha: 62 g ai/ha; for plant injury at 125 g/ha: 125 g ai/ha
Summary of the method: as §1

Horseweed = test: Test F postemergence plant response; conditions: scale 0 to 100

`FC(F)c1cc(-c2ccccc2Oc2ncc(Cl)cn2)on1` [Compound 53, 5-chloro-2-[2-[3-(difluoromethyl)-5-isoxazolyl]phenoxy]pyrimidine] gave a pest or weed control at 16 g/ha ([1]; post-emergence, Postemergence) of 70%, a pest or weed control at 31 g/ha ([1]; post-emergence, Postemergence) of 65% and a pest or weed control at 62 g/ha ([1]; post-emergence, Postemergence) of 90%. For the same compound, the pest or weed control at 125 g/ha ([1]; post-emergence, Postemergence) was 95%, the pest or weed control at 16 g/ha ([1]; pre-emergence, Preemergence) was 65% and the pest or weed control at 31 g/ha ([1]; pre-emergence, Preemergence) was 100%. The pest or weed control at 62 g/ha ([1]; pre-emergence, Preemergence) was 100%, the pest or weed control at 125 g/ha ([1]; pre-emergence, Preemergence) was 100% and the pest or weed control at 16 g/ha (kochia (Kochia scoparia); post-emergence, Postemergence) was 50%. It also gave a pest or weed control at 31 g/ha (kochia (Kochia scoparia); post-emergence, Postemergence) of 55%, a pest or weed control at 62 g/ha (kochia (Kochia scoparia); post-emergence, Postemergence) of 70% and a pest or weed control at 125 g/ha (kochia (Kochia scoparia); post-emergence, Postemergence) of 80%. The pest or weed control at 16 g/ha (kochia (Kochia scoparia); pre-emergence, Preemergence) was 10%, the pest or weed control at 31 g/ha (kochia (Kochia scoparia); pre-emergence, Preemergence) was 15% and the pest or weed control at 62 g/ha (kochia (Kochia scoparia); pre-emergence, Preemergence) was 55%. For the same compound, the pest or weed control at 125 g/ha (kochia (Kochia scoparia); pre-emergence, Preemergence) was 100%, the pest or weed control at 16 g/ha (wild oat (Avena fatua); post-emergence, Postemergence) was 5% and the pest or weed control at 31 g/ha (wild oat (Avena fatua); post-emergence, Postemergence) was 5%. The pest or weed control at 62 g/ha (wild oat (Avena fatua); post-emergence, Postemergence) was 10%, the pest or weed control at 125 g/ha (wild oat (Avena fatua); post-emergence, Postemergence) was 25% and the pest or weed control at 16 g/ha (wild oat (Avena fatua); pre-emergence, Preemergence) was 0%. It also gave a pest or weed control at 31 g/ha (wild oat (Avena fatua); pre-emergence, Preemergence) of 0%, a pest or weed control at 62 g/ha (wild oat (Avena fatua); pre-emergence, Preemergence) of 10% and a pest or weed control at 125 g/ha (wild oat (Avena fatua); pre-emergence, Preemergence) of 25%. It also gave a plant injury at 16 g/ha ([2]; post-emergence, Postemergence) of 70%, a plant injury at 31 g/ha ([2]; post-emergence, Postemergence) of 75% and a plant injury at 62 g/ha ([2]; post-emergence, Postemergence) of 80%. It also gave a plant injury at 125 g/ha ([2]; post-emergence, Postemergence) of 80%, a plant injury at 16 g/ha ([2]; pre-emergence, Preemergence) of 50% and a plant injury at 31 g/ha ([2]; pre-emergence, Preemergence) of 75%. For the same compound, the plant injury at 62 g/ha ([2]; pre-emergence, Preemergence) was 100% and the plant injury at 125 g/ha ([2]; pre-emergence, Preemergence) was 100%.
In the case of `CC(F)(F)c1cc(-c2ccccc2Oc2ncc(Br)cn2)no1` [Compound 149], the “Plant response rating, Horseweed” value (Horseweed; 16 g ai/ha Postemergence) is reported as 0, the “Plant response rating, Horseweed” value (Horseweed; 31 g ai/ha Postemergence) is reported as 20 and the “Plant response rating, Horseweed” value (Horseweed; 62 g ai/ha Postemergence) is reported as 10. The “Plant response rating, Horseweed” value (Horseweed; 125 g ai/ha Postemergence) was 20.
For `Fc1ccc(Oc2ncc(Cl)cn2)c(-c2cc(C(F)(Cl)Cl)on2)c1` [Compound 221], the “Plant response rating, Horseweed” value (Horseweed; 16 g ai/ha Postemergence) was 0, the “Plant response rating, Horseweed” value (Horseweed; 31 g ai/ha Postemergence) was 5 and the “Plant response rating, Horseweed” value (Horseweed; 62 g ai/ha Postemergence) was 10. For the same compound, the “Plant response rating, Horseweed” value (Horseweed; 125 g ai/ha Postemergence) was 30.
For `FC(F)c1cc(-c2c(Cl)cccc2Oc2ncc(Cl)cn2)no1` [Compound 179], the “Plant response rating, Horseweed” value (Horseweed; 16 g ai/ha Postemergence) was 0, the “Plant response rating, Horseweed” value (Horseweed; 31 g ai/ha Postemergence) was 0 and the “Plant response rating, Horseweed” value (Horseweed; 62 g ai/ha Postemergence) was 10. The “Plant response rating, Horseweed” value (Horseweed; 125 g ai/ha Postemergence) was 10.
With `FC(F)c1cc(-c2ccccc2Oc2ncc(Br)cn2)on1` [Compound 212] the “Plant response rating, Horseweed” value (Horseweed; 16 g ai/ha Postemergence) was 0, the “Plant response rating, Horseweed” value (Horseweed; 31 g ai/ha Postemergence) was 0 and the “Plant response rating, Horseweed” value (Horseweed; 62 g ai/ha Postemergence) was 15. The “Plant response rating, Horseweed” value (Horseweed; 125 g ai/ha Postemergence) was 10.
